Test results published in US20260297109A1, “COMPOUNDS AS SUMO ACTIVATING ENZYME INHIBITORS” (WIGEN BIOMEDICINE TECHNOLOGY (SHANGHAI) CO., LTD., priority 2022, published 2026).

These compounds were tested against T1, SAE (Homo sapiens, UniProt Q9UBT2) (assay: SUMO IF: in vitro inhibitory activity assay against SAE in HCT116 cells (SUMO-2/3 immunofluorescence)). Settings: class symbols, 6 h at 37° C.
T1 construct: endogenous in cells; host or cells: HCT116
T1 sequence (Q9UBT2 1-640): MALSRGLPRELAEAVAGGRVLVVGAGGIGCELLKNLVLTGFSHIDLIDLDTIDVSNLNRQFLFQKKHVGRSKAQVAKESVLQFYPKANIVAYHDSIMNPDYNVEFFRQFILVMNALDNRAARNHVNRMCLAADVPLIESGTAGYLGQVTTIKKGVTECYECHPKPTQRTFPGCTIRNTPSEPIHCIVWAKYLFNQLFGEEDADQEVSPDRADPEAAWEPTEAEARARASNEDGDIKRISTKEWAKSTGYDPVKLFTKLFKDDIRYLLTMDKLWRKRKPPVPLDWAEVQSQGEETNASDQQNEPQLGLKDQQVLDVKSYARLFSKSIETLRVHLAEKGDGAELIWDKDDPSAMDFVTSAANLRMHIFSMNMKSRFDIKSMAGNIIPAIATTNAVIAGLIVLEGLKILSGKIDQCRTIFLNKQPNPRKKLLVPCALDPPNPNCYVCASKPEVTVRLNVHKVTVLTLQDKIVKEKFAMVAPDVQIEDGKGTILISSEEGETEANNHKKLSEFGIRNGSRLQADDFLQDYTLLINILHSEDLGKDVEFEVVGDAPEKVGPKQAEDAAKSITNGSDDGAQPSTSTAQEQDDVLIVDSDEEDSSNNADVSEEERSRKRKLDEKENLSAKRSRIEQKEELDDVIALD
T1 sequence (Q9UBE0 1-346): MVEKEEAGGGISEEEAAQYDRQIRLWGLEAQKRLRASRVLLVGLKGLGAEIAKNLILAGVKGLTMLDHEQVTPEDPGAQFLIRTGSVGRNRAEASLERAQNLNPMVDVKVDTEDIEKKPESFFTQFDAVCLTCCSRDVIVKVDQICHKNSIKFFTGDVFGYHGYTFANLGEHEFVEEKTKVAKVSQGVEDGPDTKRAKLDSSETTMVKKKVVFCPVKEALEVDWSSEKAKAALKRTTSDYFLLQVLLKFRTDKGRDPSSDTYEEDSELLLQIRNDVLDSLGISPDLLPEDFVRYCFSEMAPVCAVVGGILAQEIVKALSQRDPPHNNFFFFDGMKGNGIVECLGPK
Type: cell-based
Outline: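 HCT116 cells were treated with compound for 6 h at 37 °C, then PFA-fixed, Triton-permeabilised and BSA-blocked. They were stained overnight at 4 °C with anti-SUMO-2/3 (18H8) rabbit mAb (1:400), then with FITC anti-rabbit IgG (1:300). Fluorescence versus DMSO gave inhibition rate and IC50.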
NS(=O)(=O)OC[C@H]1[C@H](F)[C@@H](Nc2ncncc2C(=O)c2cc3c(s2)CN(C2CC2)CC32OCCc3ccc(F)cc32)C[C@@H]1O (stereo partly drawn) [Compound 738] gave an IC50 of 50 to 200 nM. For NS(=O)(=O)OC[C@H]1[C@H](F)[C@@H](Nc2ncncc2C(=O)c2cc3c(s2)CN(C2CC2)C[C@@]32OCCc3ccc(F)cc32)C[C@@H]1O [Compound 739], the IC50 was greater than 200 nM. NS(=O)(=O)OC[C@H]1[C@H](F)[C@@H](Nc2ncncc2C(=O)c2cc3c(s2)CN(C2CC2)C[C@]32OCCc3ccc(F)cc32)C[C@@H]1O [Compound 740] showed an IC50 of no more than 50 nM. Work on NS(=O)(=O)OC[C@H]1[C@H](F)[C@@H](Nc2ncncc2C(=O)c2cc3c(s2)CN(C2CC2)CC32OCCc3ccc(Cl)cc32)C[C@@H]1O (stereo partly drawn) [Compound 741] yielded an IC50 of 50 to 200 nM. Compound NS(=O)(=O)OC[C@H]1[C@H](F)[C@@H](Nc2ncncc2C(=O)c2cc3c(s2)CN(C2CC2)C[C@@]32OCCc3ccc(Cl)cc32)C[C@@H]1O [Compound 742] has an IC50 greater than 200 nM. For NS(=O)(=O)OC[C@H]1[C@H](F)[C@@H](Nc2ncncc2C(=O)c2cc3c(s2)CN(C2CC2)C[C@]32OCCc3ccc(Cl)cc32)C[C@@H]1O [Compound 743], the IC50 was no more than 50 nM. In the case of NS(=O)(=O)OC[C@H]1[C@H](F)[C@@H](Nc2ncncc2C(=O)c2cc3c(s2)CCC32OCCc3ccccc32)C[C@@H]1O (stereo partly drawn) [Compound 744], the IC50 is reported as greater than 200 nM. NS(=O)(=O)OC[C@H]1[C@H](F)[C@@H](Nc2ncncc2C(=O)c2cc3c(s2)CC[C@@]32OCCc3ccccc32)C[C@@H]1O [Compound 745] was tested, and the IC50 was greater than 200 nM. NS(=O)(=O)OC[C@H]1[C@H](F)[C@@H](Nc2ncncc2C(=O)c2cc3c(s2)CC[C@]32OCCc3ccccc32)C[C@@H]1O [Compound 746] gave an IC50 of 50 to 200 nM. Work on NS(=O)(=O)OC[C@H]1[C@H](F)[C@@H](Nc2ncncc2C(=O)c2cc3c(s2)CCC32OCCc3ccc(F)cc32)C[C@@H]1O (stereo partly drawn) [Compound 747] yielded an IC50 of 50 to 200 nM. With NS(=O)(=O)OC[C@H]1[C@H](F)[C@@H](Nc2ncncc2C(=O)c2cc3c(s2)CC[C@@]32OCCc3ccc(F)cc32)C[C@@H]1O [Compound 748] the IC50 was greater than 200 nM. For NS(=O)(=O)OC[C@H]1[C@H](F)[C@@H](Nc2ncncc2C(=O)c2cc3c(s2)CC[C@]32OCCc3ccc(F)cc32)C[C@@H]1O [Compound 749], the IC50 was 50 to 200 nM. In the case of N#Cc1ccc2c(c1)C1(CCc3sc(C(=O)c4cncnc4N[C@H]4C[C@H](O)[C@@H](COS(N)(=O)=O)[C@@H]4F)cc31)OCC2 (stereo partly drawn) [Compound 750], the IC50 is reported as 50 to 200 nM. With N#Cc1ccc2c(c1)[C@]1(CCc3sc(C(=O)c4cncnc4N[C@H]4C[C@H](O)[C@@H](COS(N)(=O)=O)[C@@H]4F)cc31)OCC2 [Compound 751] the IC50 was greater than 200 nM. For N#Cc1ccc2c(c1)[C@@]1(CCc3sc(C(=O)c4cncnc4N[C@H]4C[C@H](O)[C@@H](COS(N)(=O)=O)[C@@H]4F)cc31)OCC2 [Compound 752], the IC50 was no more than 50 nM. With NS(=O)(=O)OC[C@H]1[C@H](F)[C@@H](Nc2ncncc2C(=O)c2cc3c(s2)C=CC32OCCc3ccccc32)C[C@@H]1O (stereo partly drawn) [Compound 753] the IC50 was 50 to 200 nM. For NS(=O)(=O)OC[C@H]1[C@H](F)[C@@H](Nc2ncncc2C(=O)c2cc3c(s2)C=C[C@@]32OCCc3ccccc32)C[C@@H]1O [Compound 754], the IC50 was greater than 200 nM. Work on NS(=O)(=O)OC[C@H]1[C@H](F)[C@@H](Nc2ncncc2C(=O)c2cc3c(s2)C=C[C@]32OCCc3ccccc32)C[C@@H]1O [Compound 755] yielded an IC50 of 50 to 200 nM. In the case of NS(=O)(=O)OC[C@H]1[C@H](F)[C@@H](Nc2ncncc2C(=O)c2cc3c(s2)C=CC32OCCc3ccc(F)cc32)C[C@@H]1O (stereo partly drawn) [Compound 756], the IC50 is reported as 50 to 200 nM. NS(=O)(=O)OC[C@H]1[C@H](F)[C@@H](Nc2ncncc2C(=O)c2cc3c(s2)C=C[C@@]32OCCc3ccc(F)cc32)C[C@@H]1O [Compound 757] showed an IC50 greater than 200 nM. Compound NS(=O)(=O)OC[C@H]1[C@H](F)[C@@H](Nc2ncncc2C(=O)c2cc3c(s2)C=C[C@]32OCCc3ccc(F)cc32)C[C@@H]1O [Compound 758] has an IC50 of no more than 50 nM. NS(=O)(=O)OC[C@H]1[C@H](F)[C@@H](Nc2ncncc2C(=O)c2cc3c(s2)C=CC32OCCc3ccc(Cl)cc32)C[C@@H]1O (stereo partly drawn) [Compound 759] showed an IC50 of no more than 50 nM. For NS(=O)(=O)OC[C@H]1[C@H](F)[C@@H](Nc2ncncc2C(=O)c2cc3c(s2)C=C[C@@]32OCCc3ccc(Cl)cc32)C[C@@H]1O [Compound 760], the IC50 was greater than 200 nM. NS(=O)(=O)OC[C@H]1[C@H](F)[C@@H](Nc2ncncc2C(=O)c2cc3c(s2)C=C[C@]32OCCc3ccc(Cl)cc32)C[C@@H]1O [Compound 761] was tested, and the IC50 was no more than 50 nM. For N#Cc1ccc2c(c1)C1(C=Cc3sc(C(=O)c4cncnc4N[C@H]4C[C@H](O)[C@@H](COS(N)(=O)=O)[C@@H]4F)cc31)OCC2 (stereo partly drawn) [Compound 762], the IC50 was 50 to 200 nM. N#Cc1ccc2c(c1)[C@]1(C=Cc3sc(C(=O)c4cncnc4N[C@H]4C[C@H](O)[C@@H](COS(N)(=O)=O)[C@@H]4F)cc31)OCC2 [Compound 763] showed an IC50 greater than 200 nM. With N#Cc1ccc2c(c1)[C@@]1(C=Cc3sc(C(=O)c4cncnc4N[C@H]4C[C@H](O)[C@@H](COS(N)(=O)=O)[C@@H]4F)cc31)OCC2 [Compound 764] the IC50 was no more than 50 nM. Compound NS(=O)(=O)OC[C@H]1[C@H](F)[C@@H](Nc2ncncc2C(=O)c2cc(C3NCCc4ccc(Cl)cc43)c(C3CC3)s2)C[C@@H]1O (stereo partly drawn) [Compound 984] has an IC50 of 50 to 200 nM. NS(=O)(=O)OC[C@H]1[C@H](F)[C@@H](Nc2ncncc2C(=O)c2cc([C@@H]3NCCc4ccc(Cl)cc43)c(C3CC3)s2)C[C@@H]1O [Compound 985] was tested, and the IC50 was 50 to 200 nM. Compound NS(=O)(=O)OC[C@H]1[C@H](F)[C@@H](Nc2ncncc2C(=O)c2cc([C@H]3NCCc4ccc(Cl)cc43)c(C3CC3)s2)C[C@@H]1O [Compound 986] has an IC50 greater than 200 nM. In the case of Cc1sc(C(=O)c2cncnc2N[C@H]2C[C@H](O)[C@@H](COS(N)(=O)=O)[C@@H]2F)cc1C1OCCc2ccc(Cl)cc21 (stereo partly drawn) [Compound 987], the IC50 is reported as 50 to 200 nM. Cc1sc(C(=O)c2cncnc2N[C@H]2C[C@H](O)[C@@H](COS(N)(=O)=O)[C@@H]2F)cc1[C@@H]1OCCc2ccc(Cl)cc21 [Compound 988] gave an IC50 of 50 to 200 nM. For Cc1sc(C(=O)c2cncnc2N[C@H]2C[C@H](O)[C@@H](COS(N)(=O)=O)[C@@H]2F)cc1[C@H]1OCCc2ccc(Cl)cc21 [Compound 989], the IC50 was greater than 200 nM. With Cc1sc(C(=O)c2cncnc2N[C@H]2C[C@H](O)[C@@H](CCS(N)(=O)=O)[C@@H]2F)cc1C1NCCc2ccc(Cl)cc21 (stereo partly drawn) [Compound 990] the IC50 was greater than 200 nM. Cc1sc(C(=O)c2cncnc2N[C@H]2C[C@H](O)[C@@H](CCS(N)(=O)=O)[C@@H]2F)cc1[C@@H]1NCCc2ccc(Cl)cc21 [Compound 991] showed an IC50 of 50 to 200 nM. Cc1sc(C(=O)c2cncnc2N[C@H]2C[C@H](O)[C@@H](CCS(N)(=O)=O)[C@@H]2F)cc1[C@H]1NCCc2ccc(Cl)cc21 [Compound 992] gave an IC50 greater than 200 nM. For CC1CNC2(CCCc3sc(C(=O)c4cncnc4N[C@H]4C[C@H](O)[C@@H](COS(N)(=O)=O)[C@@H]4F)cc32)c2cc(Cl)ccc21 (stereo partly drawn) [Compound 1020], the IC50 was 50 to 200 nM. For CC1CN[C@@]2(CCCc3sc(C(=O)c4cncnc4N[C@H]4C[C@H](O)[C@@H](COS(N)(=O)=O)[C@@H]4F)cc32)c2cc(Cl)ccc21 (stereo partly drawn) [Compound 1021], the IC50 was greater than 200 nM. With CC1CN[C@]2(CCCc3sc(C(=O)c4cncnc4N[C@H]4C[C@H](O)[C@@H](COS(N)(=O)=O)[C@@H]4F)cc32)c2cc(Cl)ccc21 (stereo partly drawn) [Compound 1022] the IC50 was no more than 50 nM. Compound CC1Cc2ccc(Cl)cc2C2(CCCc3sc(C(=O)c4cncnc4N[C@H]4C[C@H](O)[C@@H](COS(N)(=O)=O)[C@@H]4F)cc32)N1 (stereo partly drawn) [Compound 1023] has an IC50 of 50 to 200 nM. For CC1Cc2ccc(Cl)cc2[C@]2(CCCc3sc(C(=O)c4cncnc4N[C@H]4C[C@H](O)[C@@H](COS(N)(=O)=O)[C@@H]4F)cc32)N1 (stereo partly drawn) [Compound 1024], the IC50 was greater than 200 nM. Work on CC1Cc2ccc(Cl)cc2[C@@]2(CCCc3sc(C(=O)c4cncnc4N[C@H]4C[C@H](O)[C@@H](COS(N)(=O)=O)[C@@H]4F)cc32)N1 (stereo partly drawn) [Compound 1025] yielded an IC50 of 50 to 200 nM. CC1(C)CNC2(CCCc3sc(C(=O)c4cncnc4N[C@H]4C[C@H](O)[C@@H](COS(N)(=O)=O)[C@@H]4F)cc32)c2cc(Cl)ccc21 (stereo partly drawn) [Compound 1026] was tested, and the IC50 was 50 to 200 nM. CC1(C)CN[C@@]2(CCCc3sc(C(=O)c4cncnc4N[C@H]4C[C@H](O)[C@@H](COS(N)(=O)=O)[C@@H]4F)cc32)c2cc(Cl)ccc21 [Compound 1027] showed an IC50 greater than 200 nM. CC1(C)CN[C@]2(CCCc3sc(C(=O)c4cncnc4N[C@H]4C[C@H](O)[C@@H](COS(N)(=O)=O)[C@@H]4F)cc32)c2cc(Cl)ccc21 [Compound 1028] was tested, and the IC50 was 50 to 200 nM.
